Source: patent US11739098B2 (BRISTOL-MYERS SQUIBB COMPANY, priority 2017, dated 2023)
pIC50: −log10 of the molar value.

Legend:
Format in all cases: cell-based
human TLR7 = target: T1, human TLR7 (Homo sapiens, UniProt Q9NYK1); test: TLR7 inhibition reporter assay (HEK-Blue cells, SEAP reporter, gardiquimod stimulation); details: HEK-Blue cells overexpressing human TLR7, SEAP reporter, gardiquimod 7.5 μM
T1 construct: host or cells: HEK-Blue cells (HEK293-derived reporter line)
T1 sequence (Q9NYK1 27-1049): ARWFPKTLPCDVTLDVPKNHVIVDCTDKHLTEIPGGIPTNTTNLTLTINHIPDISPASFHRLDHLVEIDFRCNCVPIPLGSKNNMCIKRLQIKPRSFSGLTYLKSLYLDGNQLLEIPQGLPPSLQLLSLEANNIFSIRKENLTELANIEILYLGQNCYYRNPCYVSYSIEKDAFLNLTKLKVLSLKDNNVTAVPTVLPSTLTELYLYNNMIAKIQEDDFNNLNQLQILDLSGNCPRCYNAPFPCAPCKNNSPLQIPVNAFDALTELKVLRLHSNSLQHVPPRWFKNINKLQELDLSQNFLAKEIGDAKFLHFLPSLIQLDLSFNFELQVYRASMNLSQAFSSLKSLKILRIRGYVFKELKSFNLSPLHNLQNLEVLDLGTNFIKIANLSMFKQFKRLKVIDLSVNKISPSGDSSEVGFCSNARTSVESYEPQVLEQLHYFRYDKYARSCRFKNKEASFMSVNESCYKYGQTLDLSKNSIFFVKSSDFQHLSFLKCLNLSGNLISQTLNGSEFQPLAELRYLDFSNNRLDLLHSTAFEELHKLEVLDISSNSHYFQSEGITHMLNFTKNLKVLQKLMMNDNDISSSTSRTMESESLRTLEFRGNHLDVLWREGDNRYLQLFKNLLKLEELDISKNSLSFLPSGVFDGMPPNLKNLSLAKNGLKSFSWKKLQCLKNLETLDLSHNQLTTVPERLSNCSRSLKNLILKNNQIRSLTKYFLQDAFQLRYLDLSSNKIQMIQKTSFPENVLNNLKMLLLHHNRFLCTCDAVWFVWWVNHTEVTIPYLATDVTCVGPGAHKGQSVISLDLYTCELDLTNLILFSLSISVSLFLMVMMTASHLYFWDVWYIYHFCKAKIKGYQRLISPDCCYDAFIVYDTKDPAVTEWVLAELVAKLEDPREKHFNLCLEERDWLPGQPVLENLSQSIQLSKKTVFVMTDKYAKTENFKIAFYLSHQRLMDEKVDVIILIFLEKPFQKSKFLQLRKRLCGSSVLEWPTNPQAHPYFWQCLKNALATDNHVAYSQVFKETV
How it was run: (§1)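 HEK-Blue cells overexpressing human TLR7, TLR8 or TLR9 (NF-κB/AP-1-driven SEAP) pre-treated 30 min at room temperature with compound (0.05 nM–50 μM), then stimulated with gardiquimod 7.5 μM (TLR7), R848 15.9 μM (TLR8) or ODN2006 5 nM (TLR9). SEAP read colorimetrically after 22 h at 37 °C; % inhibition calculated.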

human TLR8 = target: T2, human TLR8 (Homo sapiens, UniProt Q9NR97); test: TLR8 inhibition reporter assay (HEK-Blue cells, SEAP reporter, R848 stimulation); details: HEK-Blue cells overexpressing human TLR8, SEAP reporter, R848 15.9 μM
T2 construct: host or cells: HEK-Blue cells (HEK293-derived reporter line)
T2 sequence (Q9NR97 27-1041): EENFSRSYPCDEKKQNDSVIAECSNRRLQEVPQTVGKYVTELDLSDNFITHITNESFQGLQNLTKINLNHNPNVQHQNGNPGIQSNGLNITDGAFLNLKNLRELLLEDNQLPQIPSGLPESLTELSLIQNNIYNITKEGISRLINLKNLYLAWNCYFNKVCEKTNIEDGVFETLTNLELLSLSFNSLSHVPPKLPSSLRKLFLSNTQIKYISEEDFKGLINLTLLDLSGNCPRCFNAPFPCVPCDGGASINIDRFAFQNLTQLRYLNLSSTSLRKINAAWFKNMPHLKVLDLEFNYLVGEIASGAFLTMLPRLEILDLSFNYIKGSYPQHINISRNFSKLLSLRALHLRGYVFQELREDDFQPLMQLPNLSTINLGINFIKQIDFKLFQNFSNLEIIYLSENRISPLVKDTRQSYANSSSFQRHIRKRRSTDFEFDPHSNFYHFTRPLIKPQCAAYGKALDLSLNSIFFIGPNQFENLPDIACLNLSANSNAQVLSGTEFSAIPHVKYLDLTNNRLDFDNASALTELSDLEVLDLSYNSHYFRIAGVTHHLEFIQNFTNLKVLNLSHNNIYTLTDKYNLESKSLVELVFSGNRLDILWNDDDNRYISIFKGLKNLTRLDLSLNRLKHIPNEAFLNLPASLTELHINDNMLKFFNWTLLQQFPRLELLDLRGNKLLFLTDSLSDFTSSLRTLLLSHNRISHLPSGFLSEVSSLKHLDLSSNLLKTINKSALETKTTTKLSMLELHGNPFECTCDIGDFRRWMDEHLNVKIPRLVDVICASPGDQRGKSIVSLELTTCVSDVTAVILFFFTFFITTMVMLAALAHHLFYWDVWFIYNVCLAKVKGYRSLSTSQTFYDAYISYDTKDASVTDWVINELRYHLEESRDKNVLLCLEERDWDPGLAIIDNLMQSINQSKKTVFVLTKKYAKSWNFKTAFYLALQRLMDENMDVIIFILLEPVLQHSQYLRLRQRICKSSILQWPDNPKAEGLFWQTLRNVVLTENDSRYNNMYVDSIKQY
How it was run: as §1

human TLR9 = target: T3, human TLR9 (Homo sapiens, UniProt Q9NR96); test: TLR9 inhibition reporter assay (HEK-Blue cells, SEAP reporter, ODN2006 stimulation); details: HEK-Blue cells overexpressing human TLR9, SEAP reporter, ODN2006 5 nM
T3 construct: host or cells: HEK-Blue cells (HEK293-derived reporter line)
T3 sequence (Q9NR96 26-1032): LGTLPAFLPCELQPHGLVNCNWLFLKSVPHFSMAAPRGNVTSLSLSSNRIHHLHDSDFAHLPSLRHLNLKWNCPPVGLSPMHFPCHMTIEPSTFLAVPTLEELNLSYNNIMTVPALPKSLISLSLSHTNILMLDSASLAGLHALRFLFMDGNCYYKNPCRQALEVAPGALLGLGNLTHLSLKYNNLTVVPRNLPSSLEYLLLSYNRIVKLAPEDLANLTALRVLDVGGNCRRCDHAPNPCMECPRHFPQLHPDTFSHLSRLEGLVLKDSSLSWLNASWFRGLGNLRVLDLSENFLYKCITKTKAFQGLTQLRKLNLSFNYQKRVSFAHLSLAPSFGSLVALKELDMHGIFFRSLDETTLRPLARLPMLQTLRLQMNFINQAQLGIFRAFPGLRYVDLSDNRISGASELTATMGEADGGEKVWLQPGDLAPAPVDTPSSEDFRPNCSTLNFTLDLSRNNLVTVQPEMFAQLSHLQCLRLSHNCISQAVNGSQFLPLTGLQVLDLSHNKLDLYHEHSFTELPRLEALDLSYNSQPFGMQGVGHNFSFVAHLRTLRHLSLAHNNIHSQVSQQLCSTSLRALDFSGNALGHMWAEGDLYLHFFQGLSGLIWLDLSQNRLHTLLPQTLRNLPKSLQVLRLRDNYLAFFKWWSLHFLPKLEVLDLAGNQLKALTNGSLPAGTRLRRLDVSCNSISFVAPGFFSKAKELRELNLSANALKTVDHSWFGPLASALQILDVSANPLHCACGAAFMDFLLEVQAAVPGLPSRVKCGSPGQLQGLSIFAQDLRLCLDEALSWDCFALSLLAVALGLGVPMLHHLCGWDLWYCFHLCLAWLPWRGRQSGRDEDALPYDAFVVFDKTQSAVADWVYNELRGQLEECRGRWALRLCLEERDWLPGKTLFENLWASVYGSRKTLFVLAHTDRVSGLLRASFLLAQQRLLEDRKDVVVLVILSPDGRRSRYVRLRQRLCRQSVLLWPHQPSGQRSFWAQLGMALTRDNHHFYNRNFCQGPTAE
How it was run: as §1

Cc1cc(-c2[nH]c3ccc(C4CCN(Cc5ncn(C)n5)CC4)cc3c2C(C)C)cc2cnnn12 [Example 890, 5-(3-isopropyl-5-(1-((1-methyl-1H-1,2,4-triazol-3-yl)methyl)piperidin-4-yl)-1H-indol-2-yl)-7-methyl-[1,2,3]triazolo[1,5-a]pyridine]
pIC50 (human TLR7): > 7.00
pIC50 (human TLR8): > 7.00
pIC50 (human TLR9): 4.30 to 6.00

COCCN1CCC(c2ccc3[nH]c(-c4cc(C)n5ncnc5c4)c(C(C)C)c3c2)CC1 [Example 779, 7-(3-isopropyl-5-(1-(2-methoxyethyl)piperidin-4-yl)-1H-indol-2-yl)-5-methyl-[1,2,4]triazolo[1,5-a]pyridine]
pIC50 (human TLR7): > 7.00
pIC50 (human TLR8): > 7.00
pIC50 (human TLR9): 4.30 to 6.00

Cc1cc(-c2[nH]c3ccc(C4CCNCC4)cc3c2C(C)C)cc2nccnc12 [Example 88, 7-(3-isopropyl-5-(piperidin-4-yl)-1H-indol-2-yl)-5-methylquinoxaline]
pIC50 (human TLR7): > 7.00
pIC50 (human TLR8): 6.00 to 7.00
pIC50 (human TLR9): 4.30 to 6.00

CC(C)c1c(-c2ccn3nncc3c2)[nH]c2ccc(C3CCN(CC(=O)N(C)C)CC3)cc12 [Example 302, 2-(4-(2-([1,2,3]triazolo[1,5-a]pyridin-5-yl)-3-isopropyl-1H-indol-5-yl)piperidin-1-yl)-N,N-dimethylacetamide]
pIC50 (human TLR7): > 7.00
pIC50 (human TLR8): 6.00 to 7.00
pIC50 (human TLR9): 4.30 to 6.00

CC(C)c1c(-c2ccn3nnnc3c2)[nH]c2ccc(C3CCNCC3)cc12 [Example 82, 7-(3-isopropyl-5-(piperidin-4-yl)-1H-indol-2-yl)tetrazolo[1,5-a]pyridine]
pIC50 (human TLR7): > 7.00
pIC50 (human TLR8): 6.00 to 7.00
pIC50 (human TLR9): 4.30 to 6.00

CNC(=O)CN1CCC(c2ccc3[nH]c(-c4cc(OC)n5ncnc5c4)c(C(C)C)c3c2)CC1 [Example 332, 2-(4-(3-isopropyl-2-(5-methoxy-[1,2,4]triazolo[1,5-a]pyridin-7-yl)-1H-indol-5-yl)piperidin-1-yl)-N-methylacetamide]
pIC50 (human TLR7): > 7.00
pIC50 (human TLR8): > 7.00
pIC50 (human TLR9): 6.00 to 7.00

CCc1c(-c2ccnc3[nH]ncc23)[nH]c2ccc(C3CCN(Cc4ncco4)CC3)cc12 [Example 867, 2-((4-(3-ethyl-2-(1H-pyrazolo[3,4-b]pyridin-4-yl)-1H-indol-5-yl)piperidin-1-yl)methyl)oxazole]
pIC50 (human TLR7): 6.00 to 7.00
pIC50 (human TLR8): 6.00 to 7.00
pIC50 (human TLR9): 4.30 to 6.00

CNC(=O)CN1CCC(c2ccc3[nH]c(-c4ccn5ccnc5c4)c(CC(F)F)c3c2)CC1 [Example 446, 2-(4-(3-(2,2-difluoroethyl)-2-(imidazo[1,2-a]pyridin-7-yl)-1H-indol-5-yl)piperidin-1-yl)-N-methylacetamide]
pIC50 (human TLR7): > 7.00
pIC50 (human TLR8): 6.00 to 7.00
pIC50 (human TLR9): 6.00 to 7.00

CC(C)c1c(-c2ccc3ncnn3n2)[nH]c2ccc(C3CCN(C4COC4)CC3)cc12 [Example 729, 6-(3-isopropyl-5-(1-(oxetan-3-yl)piperidin-4-yl)-1H-indol-2-yl)-[1,2,4]triazolo[1,5-b]pyridazine]
pIC50 (human TLR7): > 7.00
pIC50 (human TLR8): 6.00 to 7.00
pIC50 (human TLR9): 4.30 to 6.00

Cc1nc2cc(-c3[nH]c4ccc(C5CCN(C(=O)CN(C)C)CC5)cc4c3C(C)C)cc(C)c2o1 [Example 491, 2-(dimethylamino)-1-(4-(2-(2,7-dimethylbenzo[d]oxazol-5-yl)-3-isopropyl-1H-indol-5-yl)piperidin-1-yl)ethan-1-one]
pIC50 (human TLR7): 6.00 to 7.00
pIC50 (human TLR8): 4.30 to 6.00
pIC50 (human TLR9): 4.30 to 6.00

CC(C)c1c(-c2ccnc3[nH]ncc23)[nH]c2ccc(C3CCN(CC4CCN(C(C)C)CC4)CC3)c(F)c12 [Example 967, 4-(4-fluoro-3-isopropyl-5-(1-((1-isopropylpiperidin-4-yl)methyl)piperidin-4-yl)-1H-indol-2-yl)-1H-pyrazolo[3,4-b]pyridine]
pIC50 (human TLR7): 6.00 to 7.00
pIC50 (human TLR8): 6.00 to 7.00
pIC50 (human TLR9): 4.30 to 6.00

Cc1cn2c(C)cc(-c3[nH]c4ccc(C5CCNCC5)cc4c3C(C)C)cc2n1 [Example 160, 7-(3-isopropyl-5-(piperidin-4-yl)-1H-indol-2-yl)-2,5-dimethylimidazo[1,2-a]pyridine]
pIC50 (human TLR7): 6.00 to 7.00
pIC50 (human TLR8): 6.00 to 7.00
pIC50 (human TLR9): 6.00 to 7.00
